# Data reported in patent EP4050002A1, “ANTI-PROLIFERATIVE AGENTS” (First Health Pharmaceuticals B.V., priority 2021, dated 2022).
# Read-outs that look alike come from different tables or passages of the source.
# Test: Pharmacokinetic studies, single administration
# Assay type: in vivo, male Swiss albino mice
# Settings: for MRT last: read-out: MRT0-last
# Procedure: The pharmacokinetic study was performed in male Swiss albino mice from Hylasco Biotechnology Pvt. Ltd. (A Charles River technology Licensee). The tissue distribution study was performed in male Swiss albino mice and in male FOXN1^nu/nu nude mice (Envigo spa). The efficacy study was performed in male FOXN1^nu/nu nude mice.
# Single intravenous administration studies were done as follows: • 1. Compound 5 • dose: 1 mg/kg • dose concentration: 0.2 mg/ml in 10% DMSO and 10% Solutol in WFI (90%). • volume: 5 ml/kg • blood withdrawal time points: 0.083, 0.25, 0.5, 1, 2, 4, 8, 24 hours post administration • 2. Compound 3 • […] • dose concentration: 0.2 mg/ml in 10% DMSO and 10% Solutol in WFI (90%). • volume: 5 ml/kg • blood withdrawal time points: 0.083, 0.25, 0.5, 1, 2, 4, 8, 24 hours post administration
# Single intraperitoneal administration studies were done as follows: • 1. Compound 5 • dose 1: 45 mg/kg • dose concentration: […] in 10% DMSO, 5% TWEEN 80 and WFI (85%) • volume: 5 ml/kg • blood withdrawal time points: 0.25, 0.5, 1, 2, 4, 6, 8, 24 hours post administration • brain, liver and lungs collected at 4, 8 and 24 hours • 2. Compound 5 • dose 2: 10 mg/kg • dose concentration: 2 mg/ml in 10% DMSO, 10% Solutol and WFI (90%). • volume: 5 ml/kg • blood withdrawal time points: 0.25, 0.5, 1, 2, 4, 6, 8, 24 hours post administration
# Single oral administration studies were done as follows: • 1. Compound 5 • dose: 45 mg/kg • dose concentration: 4.5 mg/ml in Labrasol (30%), Capmul PG 8 (30%), Cremophor EL (10%) and PEG (30%) • volume given by oral gavage: 10 ml/Kg • blood withdrawal time points: 0.08, 0.25, 0.5, 1, 2, 4, 6, 8, 24 hours post administration
# Single intra tracheal administration studies were done as follows: • 1. Compound 5 • dose: 0.08 mg/kg • dose concentration: 0.04 mg/ml in DMSO (1%) and WFI (99%) • volume given by intra tracheal route: 2 ml/Kg • blood withdrawal time points: 0.03, 0.08, 0.17, 0.25, 0.75, 1.5, 2, 4 hours post administration
# Animals were observed up to 24 hours after dose administration for behavioral or physical alterations. For blood withdrawal, mice were anesthetized using gaseous anesthesia and 0.2 to 0.3 ml of blood samples were collected in Li-Heparin containing tubes at the time points above indicated, stored on ice, centrifuged within 15 minutes to separate plasma at 1540 ref (5000 rpm) at 4°C for 10 minutes; plasma was separated and transferred to new tubes.
# Selected organs were collected at 4, 8 and 24 hours for drug distribution studies: mice were anesthetized and intra-cardiac whole body perfusion was performed using chilled saline. Separated tissues were immediately washed, dried, weighed and frozen at -80±10°C until homogenization. The levels of compound in the tissues and in plasma were quantified by LC-MS/MS, using as instrument Q-TRAP 500, with a column Phenomenex, KINETEX 5µ EVO C18 50 mm X 4.5 mm (Phenomenex). The mobile phase employed was composed as follows: aqueous reservoir, 10 mM Ammonium Acetate with 0.1% Formic acid in MilliQ water; organic reservoir, Acetonitrile:Methanol (50:50, v/v); flow rate 1 ml/min; injection volume 10µl; rinsing solution, Acetonitrile:Methanol:Water (20:60:20, v/v).
# Calibration Curve & Quality Control samples preparation: 0.5 µl of calibration curve standards were diluted 25X with blank matrix (i.e. Acetonitrile:Methanol (1:1, v/v)) and precipitated with 200 µl of acetonitrile containing internal standard at 200 ng/ml concentration, then vortexed for 5 min at 850 rpm, centrifuged at 4000 rpm for 5 min at 4°C, from this 110 µl of supernatant was separated and diluted with 130 µl of methanol:water, (1:1 v/v) .
# Telmisartan (200 ng/ml) was used as internal standard. Telmisartan was spiked in 100% acetonitrile to a final concentration of 200 ng/ml. […]
# [1] = I.P. 1, 45 mg/kg, TWEEN-based vehicle
# [2] = I.P. 2, 10 mg/kg, Solutol-based vehicle
# [3] = mouse, in vivo, iv, I.V., 1 mg/kg
# [4] = mouse, plasma, ip, I.P. 1, 45 mg/kg, TWEEN-based vehicle
# [5] = mouse, plasma, ip, I.P. 2, 10 mg/kg, Solutol-based vehicle
# [6] = mouse, plasma, iv, I.V., 1 mg/kg
# [7] = mouse, plasma, po, P.O., 45 mg/kg
# [8] = mouse, plasma, I.T., 0.08 mg/kg
smiles,measurement,setting,value
CCCCc1cn(-c2ccc(-c3nnc(-c4ccccc4C(F)(F)F)o3)cc2)nn1 [Compound 5],AUCExtra,[1],14.86%
same,F,[1],136%
same,AUCExtra,[2],5.02%
same,F,[2],135%
same,AUCExtra,"I.T., 0.08 mg/kg",2.92%
same,AUCExtra,"I.V., 1 mg/kg",3.98%
same,AUCExtra,"P.O., 45 mg/kg",16.91%
same,F,"P.O., 45 mg/kg",95%
same,bioavailability,"mouse, in vivo, ip, intraperitoneal route, read-out: absolute bioavailability (F)",> 100%
same,Vd,[3],8.2 L/kg
same,clearance,[3],40 mL/min/kg
same,AUC(0-inf),[4],25600 ng·h/mL
same,AUC(0-t),[4],21800 ng·h/mL
same,Cmax,[4],3700 ng/mL
same,Tmax,[4],2 h
same,MRT last,[4],7.46 h
same,AUC(0-inf),[5],5630 ng·h/mL
same,AUC(0-t),[5],5350 ng·h/mL
same,Cmax,[5],692 ng/mL
same,Tmax,[5],2 h
same,MRT last,[5],6.49 h
same,AUC(0-inf),[6],417 ng·h/mL
same,AUC(0-t),[6],400 ng·h/mL
same,C0,[6],879 ng/mL
same,half-life,[6],142 min
same,MRT last,[6],1.09 h
same,AUC(0-inf),[7],17800 ng·h/mL
same,AUC(0-t),[7],14800 ng·h/mL
same,Cmax,[7],1350 ng/mL
same,Tmax,[7],4 h
same,MRT last,[7],9.05 h
same,AUC(0-inf),[8],815 ng·h/mL
same,AUC(0-t),[8],791 ng·h/mL
same,Cmax,[8],1950 ng/mL
same,Tmax,[8],0.03 h
same,MRT last,[8],0.72 h
